In patent publication US12419874B2, “GLP-1R agonist compound and use thereof” (Chongqing Pharmaceutical Research Institute Co., Ltd., priority 2024, dated 2025):
Values belong to the compound of their own block, whether it stands above or below them.

Tests used:
GLP-1R [1] = biological target: T1, GLP-1R (Homo sapiens, UniProt P43220); assay: GLP-1R agonistic activity by One-Lite luciferase assay in HEK293-GLP-1R-luc cells (Example 59); format: cell-based; conditions: 6 h incubation, read-out: cAMP EC50
T1 sequence (P43220 24-463): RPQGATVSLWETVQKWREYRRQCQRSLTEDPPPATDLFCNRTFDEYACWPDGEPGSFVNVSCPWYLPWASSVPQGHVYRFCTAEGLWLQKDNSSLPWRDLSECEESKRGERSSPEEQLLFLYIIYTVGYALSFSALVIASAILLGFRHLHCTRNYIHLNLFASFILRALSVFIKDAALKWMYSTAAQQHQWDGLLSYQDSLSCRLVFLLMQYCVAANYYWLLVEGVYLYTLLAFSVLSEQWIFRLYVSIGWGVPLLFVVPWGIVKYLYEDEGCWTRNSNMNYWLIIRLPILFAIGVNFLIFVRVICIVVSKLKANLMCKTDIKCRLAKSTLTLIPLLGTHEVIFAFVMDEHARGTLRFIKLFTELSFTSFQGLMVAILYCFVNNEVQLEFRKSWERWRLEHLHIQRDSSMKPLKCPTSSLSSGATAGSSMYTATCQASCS
Procedure, shortened: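 HEK293 cells stably expressing GLP-1R with a cAMP-responsive luciferase reporter, 30000 cells/well, exposed to compound for 6 h at 37 °C. Chemiluminescence read after 3 min with One-Lite substrate at room temperature; % activity normalised to positive and vehicle controls, EC50 from a four-parameter dose-response fit.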

GLP-1R [2] = biological target: T1, GLP-1R; assay: GLP-1R agonistic activity by cAMP detection kit in HEK293-GLP-1R-luc cells (Example 58); format: cell-based; conditions: 30 min incubation
Experimental: The agonistic activities of the compounds of the present disclosure on GLP-1R were evaluated by detecting the generation of cAMP.
• (1) Cell line: HEK293-GLP-1R-luc Stable Cell Line (Cobioer, CBP71117); • (2) Culture medium: DMEM+10% FBS (Gibco); • (3) Kit: cAMP detection kit (PerkinElmer). 2. Experimental Procedures • (1) HEK293-GLP1R cells were inoculated in a 384-well plate at a density of 2000 cells per well; • (2) 4× working solution of each compound was formulated; • (3) 5 μL of 4× working solution of each compound was added to corresponding well and incubated at 37° C. for 30 min; • (4) 10 μL of Eu-cAMP tracer diluted with Lysis Buffer (1/50) was added to each well; • (5) 10 μL of Ulight-anti-cAMP diluted with Lysis Buffer (1/150) was added to each well; • (6) The plate was incubated at room temperature for 1 h; • (7) The plate was read by a multimode microplate reader (excitation wavelength: 320 nm; emission wavelength: 665 nm and 620 nm). 3. Data Analysis • (1) % Activity was calculated by the following formula: % Activity=100−(Signalcmpd−SignalAve-PC)/(SignalAve-VC−SignalAve-PC)×100 • (2) The dose-response curve was plotted to calculate EC50: Y=Bottom+(Top−Bottom)/(1+10^(Log EC50−X)*HillSlope)) • X: log of agonist concentration; Y: Activity. 4. Experimental Results

[3] = test system: GLP-1R humanized C57BL/6N mice fed with high-fat diets; assay: In vivo efficacy on body weight and food intake in high-fat diet hGLP-1R mice; conditions: for Cumulative Food Intake on Day 27 / Change Rate of Body Weight on Day 27: gavage once daily; for Change Rate of Body Weight on Day 27: corrected by Vehicle
Experimental: The effects of long-term administration of the compounds of the present disclosure on the weight and food intake of GLP-1R humanized C57BL/6N mice fed with high-fat diets were evaluated.
• five-week-old male C57BL/6N hGLP-1R mice; • 60% high-fat diet (HFD); electronic balance. 3. Experimental Method • (1) C57BL/6N_hGLP-1R mice were fed with 60% high-fat diets until the end of the experiment. • (2) At the 10th week of HFD feeding, the model mice were randomly divided into groups according to their body weight, with 6 to 7 mice in each group. Subsequently, the single-caged mice were adaptively fed for 2 weeks. The first group was Vehicle group (Vehicle: 10% PEG 400+10% propylene glycol+80% glycine-NaOH buffer), and administered with the Vehicle; the remaining groups were drug treatment groups; the duration of administration was 27 days. • (3) The day of drug administration was defined as Day 0. At each administration, the animals were weighed and the data were recorded, and the mice were treated depending upon their body weight. • (4) The food intake of the mice in each group was measured once a day from Day 0 of the experiment. Specifically, the diets were changed after each weighing and administration, and the addition amounts and residual amounts thereof were recorded. 4. Experimental Data Processing and Statistical Analysis
The rates of change in the body weight of mice after administration were summarized and statistically analyzed.
The rate of change in the body weight corrected by Vehicle was calculated: (((BWt/BW0)−1)−(BWt-vec-avg))*100%;
BWt represented the body weight of mouse in drug treatment group on Day t; BW0 represented the body weight of mouse in drug treatment group on Day 0; BWt-vec-avg represented the average body weight of mice in Vehicle group on Day t for drug treatment groups.
The cumulative food intake of mice after drug administration was summarized and statistically analyzed.
Cumulative food intake was calculated: addition amounts (g)—residual amounts (g).
The cumulative food intake was the sum of daily food intake of each animal during the period of administration.

[4] = In vivo pharmacokinetics in Macaca fascicularis, intravenous
Experimental: A clear solution of “example compound 67 in WO2018056453” in 10% PEG/90% 100 mM glycine-NaOH and a clear solution of “Compound 1” in 10% PEG/90% 100 mM glycine-NaOH were prepared. The above solutions were injected into subcutaneous veins of the fore limbs of male Macaca fascicularis (n=2) at a dose of 0.12 mg/kg, respectively. At different time points (0.083, 0.25, 0.5, 1.0, 2.0, 4.0, 8.0, 24.0, and 36 h) after administration, blood samples were collected from veins into anticoagulant tubes containing EDTA-K2, and centrifuged to separate plasma.
The drug concentrations in the plasma were determined by the LC-MS/MS method, and the pharmacokinetic software (e.g., winNonlin Version 6.3) was used to calculate the related pharmacokinetic parameters as shown in Table 10 by using the log-linear trapezoidal rule of the non-compartmental analysis.

[5] = In vivo pharmacokinetics in rats, oral; set-up: species or system SD rats; conditions: for AUC(0-t) / Cmax / half-life: rat, plasma, SD rats, PO
Experimental: The compounds of the present disclosure were formulated with […]+90% 100 mM glycine-64 mM NaOH, and orally administered to fasted SD rats at a dose of 1 mg/kg or 5 mg/kg, respectively. At different time points (0.25, 0.5, 1.0, 2.0, 4.0, 5.0, 6.0, 7.0, 8.0, and 24 h) after administration, about 50 μL of blood samples were collected from veins into anticoagulant tubes containing EDTA-K2, and centrifuged to separate plasma. The plasma concentrations of the compounds were determined by LC-MS/MS. WinNonlin was used to calculate the pharmacokinetic parameters by using the non-compartmental analysis, and the experimental results were listed in Table 9.

[6] = Macaca fascicularis, versus example compound 67 in WO2018056453, in words
[7] = cynomolgus monkey, plasma, male Macaca fascicularis, 0.12 mg/kg
[8] = rats, oral, versus example compound 67 in WO2018056453, in words

- EC50 (GLP-1R [1]): ≤ 20 nM
- EC50 (GLP-1R [2]): ≤ 0.1 nM
Structure (SMILES): Cc1cc(-n2nc3c(c2-n2ccn(-c4ccc5c(cnn5C)c4F)c2=O)[C@H](C)N(C(=O)c2cc4cc([C@H]5CCOC(C)(C)C5)ccc4n2[C@@]2(c4noc(=O)[nH]4)C[C@@H]2C)CC32CCOCC2)cc(C)c1F [Compound 43]

- clearance (Cl) compared with the control compound [4, 6]: lower
- exposure (AUC) compared with the control compound [4, 6]: higher
- half-life (T1/2) compared with the control compound [4, 6]: longer
- AUC(0-t) [4, 7]: 754 ng·h/mL
- clearance [4, 7]: 2.63 mL/min/kg
- half-life [4, 7]: 6.08 h
- EC50 (GLP-1R [1]): ≤ 20 nM
- EC50 (GLP-1R [2]): ≤ 0.1 nM
- AUC(0-t) ([5]; 1 mg/kg): 2300 ng·h/mL
- Cmax ([5]; 1 mg/kg): 213 ng/mL
- half-life ([5]; 1 mg/kg): 10 h
- AUC(0-t) ([5]; 5 mg/kg): 11800 ng·h/mL
- Cmax ([5]; 5 mg/kg): 1080 ng/mL
- half-life ([5]; 5 mg/kg): 12.9 h
- maximum plasma concentration Cmax compared with the control compound [5, 8]: higher
- oral exposure AUC compared with the control compound [5, 8]: higher
Structure (SMILES): Cc1cc(-n2nc3c(c2-n2ccn(-c4ccc5c(cnn5C)c4F)c2=O)[C@H](C)N(C(=O)c2cc4cc([C@H]5CCOC(C)(C)C5)ccc4n2[C@@]2(c4noc(=O)[nH]4)C[C@@H]2C)CC32CC2)cc(C)c1F [Compound 1]
- Cumulative Food Intake on Day 27 ([3]; 0.3 mpk): 73.91 ± 6.71 g
- Change Rate of Body Weight on Day 27 ([3]; 0.3 mpk): −15.04 ± 1.90%
- Cumulative Food Intake on Day 27 ([3]; 1.5 mpk): 70.01 ± 5.88 g
- Change Rate of Body Weight on Day 27 ([3]; 1.5 mpk): −18.46 ± 1.98%
- Cumulative Food Intake on Day 27 ([3]; 3.0 mpk): 62.75 ± 6.97 g
- Change Rate of Body Weight on Day 27 ([3]; 3.0 mpk): −23.78 ± 1.61%
- reduction of the body weight and inhibition of the food intake ([3]; long-term administration, 0.3 to 3 mpk, in words): excellent effects
